Patent US10123985B2, “Therapeutic strategies for treating mitochondrial disorders” (Whitehead Institute for Biomedical Research, priority 2015, dated 2018)
Entries after “also recorded” stand apart in the source; their conditions may differ.

What was measured:
Assay type in all cases: cell-based
143B CytB cells [1] = assay: Proliferation assay of respiration-incompetent 143B CytB cybrid cells; settings: for Proliferation rate of 143B CytB cells: media supplemented with the substance, no pyruvate unless tested, uridine present
Procedure: FL5.12 cells were cultured in the same medium and supplemented with 5 μg/mL recombinant mouse IL-3 (R&D Systems). […] All cells incubated at 37° C. with 5% CO2.
Adherent cell lines growing in log phase were trypsinized, counted, and plated onto 6 well dishes (Corning) in 2 mL complete DMEM and incubated overnight. […] The following day, one plate of cells was counted to determine the initial cell count at the time of treatment. Cells were washed 2 times with 2 mL phosphate buffered saline (PBS) and 4 mL media premixed with the indicated treatments was added. FL5.12 cells, a suspension cell line, were washed 2 times in PBS and added directly to media containing the indicated treatments and 5 μg/mL recombinant mouse IL-3. Proliferation rate assay media was DMEM without pyruvate containing 10% dialyzed FBS, penicillin-streptomycin, and 0.1 mg/mL uridine, unless otherwise noted. […] Cells were counted using Cellometer Auto T4 Plus Cell Counter (Nexcelom Bioscience). Proliferation rate was determined using the following formula: Proliferation Rate (Doublings per day)=(log2(Final cell count (day 5)/Initial cell count (day 1))/4 (days)

143B CytB cells [2] = assay: Measurement of NAD+/NADH (NAD/NADH Glo) in 143B CytB cells; settings: absence or presence of the substance
Procedure: NAD^+/NADH measurements were done using a modified version of manufacturer instructions of NAD/NADH Glo Assay (Promega). Cells were plated and treated as for proliferation assays and cell extracts were taken 6 hours after treatment. For extraction, cells were quickly washed 3 times in ice cold PBS, extracted in 100 μL ice cold lysis buffer (1% Dodecyltrimethylammonium bromide (DTAB) in 0.2 N NaOH diluted 1:1 with PBS), and immediately frozen at −80° C. To measure NADH, 20 μL of sample was moved to PCR tubes and incubated at 75° C. for 30 min, where the basic conditions will selectively degrade NAD^+. To measure NAD^+, 20 μL of the samples was moved to PCR tubes containing 20 μL lysis buffer and 20 μL 0.4 N HCl and incubated at 60° C. for 15 min, where acidic conditions will degrade NADH. Following incubations, samples were allowed to equilibrate to room temperature and then quenched by neutralizing with 20 μL 0.25 M Tris in 0.2 N HCl (NADH) or 20 μL 0.5 M Tris base (NAD^+). Manufacturer instructions were followed thereafter to measure NAD^+/NADH.

[3] = test system: A172, H1299, HeLa, U87, FL5.12, and MEF cell lines; assay: Proliferation assay of a panel of cell lines treated with respiration inhibitors; settings: rotenone, antimycin or oligomycin plus the substance
Procedure: (§1) 143B, A172, H1299, HeLa, U87 and MEF cells were cultured in Dulbecco's Modified Eagle's Medium (DMEM) (Gibco) supplemented with 10% fetal bovine serum (FBS) and penicillin-streptomycin. FL5.12 cells were cultured in the same medium and supplemented with 5 μg/mL recombinant mouse IL-3 (R&D Systems). 143B cybrid cell lines (WT Cybrid and CytB) were cultured in DMEM with 10% FBS, penicillin-streptomycin, and 0.1 mg/mL uridine. All cells incubated at 37° C. with 5% CO2.
(§2) Adherent cell lines growing in log phase were trypsinized, counted, and plated onto 6 well dishes (Corning) in 2 mL complete DMEM and incubated overnight. Initial seeding density was 2E4 cells per well for 143B, A172, H1299, HeLa, 143B WT Cybrid, and MEFs and 3E4 cells for 143B CytB and U87 cells. The following day, one plate of cells was counted to determine the initial cell count at the time of treatment. Cells were washed 2 times with 2 mL phosphate buffered saline (PBS) and 4 mL media premixed with the indicated treatments was added. FL5.12 cells, a suspension cell line, were washed 2 times in PBS and added directly to media containing the indicated treatments and 5 μg/mL recombinant mouse IL-3. Proliferation rate assay media was DMEM without pyruvate containing 10% dialyzed FBS, penicillin-streptomycin, and 0.1 mg/mL uridine, unless otherwise noted. For these cell lines at these seeding densities it was determined that for 4 days the cells maintained logarithmic proliferation (data not shown), therefore final cell counts were measured 4 days after treatment. Cells were counted using Cellometer Auto T4 Plus Cell Counter (Nexcelom Bioscience). Proliferation rate was determined using the following formula: Proliferation Rate (Doublings per day)=(log2(Final cell count (day 5)/Initial cell count (day 1))/4 (days)

143B cells = assay: Proliferation assay of wild-type 143B cells treated with respiration inhibitors; settings: for Proliferation of respiration-inhibited 143B cells with supplementation: rotenone, phenformin, antimycin, myxothiazol, azide or oligomycin plus the substance; for Proliferation of rotenone treated 143B cells: wide range of rotenone doses, 1 mM AKB or 20 mM aspartate, 4 days
Procedure: as §1, §2

143B WT cybrid cells = assay: Proliferation assay of respiration-competent 143B WT cybrid cells; settings: presence or absence of the substance
Procedure: as §1, §2

[4] = test system: MERRF and CYTB cybrids, 143B ρ0 cells; assay: Cell counting assay of cybrids and 143B ρ0 cells; settings: 6 days; for Proliferation of ETC-deficient cybrids and 143B ρ0 cells: RPMI with uridine, pyruvate (1 mM) or aspartate (10 mM); for Proliferation of ETC-defective cybrids expressing sgGOT1: uridine and pyruvate (1 mM), with or without aspartate (10 mM)
Procedure: Cybrids or 143B ρ0 cells were plated in triplicate in 12 well plates at 5,000-20,000 cells per well in 1.5 mL as described in each experiment. After six days, the entire contents of the well was trypsinized and counted using a Beckman Z2 Coulter Counter with a size selection setting of 8-30 um.
Transmitochondrial cytoplasmic hybrid cells (cybrids) are commonly used to study the mechanisms through which mutations in mitochondrial DNA (mtDNA) impair cellular function (Schon et al., 2012). These cells harbor patient-derived mitochondrial genomes with pathogenic mutations, and, like cells treated with ETC inhibitors, require pyruvate to proliferate in culture (King and Attardi, 1989, 1996). To expand upon our work with pharmacological inhibition of the ETC, we asked if aspartate supplementation rescues the proliferation of cells with genetic ETC defects. We used two patient-derived cybrid cells, the first with a homoplasmic microdeletion in the cytochrome b subunit of complex III (CYTB) associated with a form of parkinsonism and encephalopathy (De Coo et al., 1999; Rana et al., 2000), and the second with a homoplasmic point mutation in the mitochondrially encoded tRNA lysine (MT-TK) associated with myoclonic epilepsy with ragged red fibers (MERRF) (Wallace et al., 1988). To characterize the metabolic needs of these cybrids, as well as cells lacking mtDNA (143B ρ0), we cultured them in media with or without pyruvate or aspartate.

SMILES	Uridine auxotrophy of 143B CytB cells (143B CytB cells [1]; AKB in the presence or absence of uridine)	Proliferation rate of 143B CytB cells (143B CytB cells [1])	Cellular NAD+/NADH ratio (143B CytB cells [2])	Proliferation of cell line panel with supplementation [3]	Proliferation of respiration-inhibited 143B cells with supplementation (143B cells)	Proliferation of rotenone treated 143B cells (143B cells)	Proliferation rate of 143B WT cybrid cells (143B WT cybrid cells)	Cell permeability (143B CytB cells [1]; inferred from supra-physiological doses required to restore growth)	Proliferation of ETC-deficient cybrids and 143B ρ0 cells [4]	Proliferation of ETC-defective cybrids expressing sgGOT1 [4]
CCC(=O)C(=O)O [AKB, α-ketobutyrate]	does not alleviate uridine auxotrophy of 143B CytB cells	rescued proliferation rate of 143B CytB cells to levels similar to what was observed with pyruvate addition	sufficient to increase the cellular NAD^+/NADH ratio	sufficient to restore proliferation in the presence of ETC inhibitors	rescued proliferation, with proliferation rates comparable to that observed in untreated cells	restore proliferation in 143B cells over a wide range of rotenone doses	does not impact proliferation of 143B WT cybrids	–	–	–
N[C@@H](CC(=O)O)C(=O)O [aspartate]	–	capable of supporting exponential growth of 143B CytB cells	nor did it affect the NAD^+/NADH ratio	rescued ETC inhibitor-induced proliferation decreases in all other cell lines tested	Proliferation was restored in response to all ETC inhibitors	restore proliferation in 143B cells over a wide range of rotenone doses	did not have gross proliferation differences	nearly impermeable to cells	on its own enabled their proliferation; also recorded: can replace pyruvate in enabling the proliferation of patient-derived mtDNA mutant cybrids and 143B ρ0 cells	bypassed the need for GOT1; also recorded: can be bypassed by aspartate
CC(=O)C(=O)O [pyruvate]	–	divide at a similar rate	sufficient to increase the cellular NAD^+/NADH ratio	–	–	–	divide at a similar rate; also recorded: does not impact proliferation of 143B WT cybrids	–	proliferated in media supplemented with pyruvate	requires GOT1; also recorded: enables the proliferation of patient-derived cybrid cells in a GOT1-dependent fashion
